# Data published in patent publication US20250228239A1, “MOLECULES HAVING PESTICIDAL UTILITY, AND INTERMEDIATES, COMPOSITIONS, AND PROCESSES, RELATED THERETO” (priority 2024, published 2025).
# Where two headings read alike, the source gives them in different places.
# Tests used:
# Format in all cases: in vivo
# [1] = tested on: Beet Armyworm (Spodoptera exigua, LAPHEG); assay: Bioassays on Beet Armyworm (BAW), 128-well diet tray assay; settings: Spodoptera exigua
# Outline: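 Diet-overlay assay: 50 μg/cm^2 compound applied in 90:10 acetone-water to artificial diet, allowed to dry, then infested with 1–5 L2 larvae/well; 8 wells/compound; covered, vented; 25° C., 14:10 L:D, 5–7 d; % mortality per well, averaged.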
# [2] = tested on: Cabbage Looper (Trichoplusia ni, TRIPNI); assay: Bioassays on Cabbage Looper (CL), 128-well diet tray assay; settings: Trichoplusia ni
# Outline: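 Test molecule was dissolved in 90:10 acetone-water, applied to artificial diet at 50 μg/cm^2 and allowed to dry. Second-instar larvae were then added, one to five per well, and trays held at 25° C for five to seven days before mortality was scored and averaged.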
# [3] = tested on: Yellow Fever Mosquito (Aedes aegypti, AEDSAE); settings: for YFM rating: Table ABC / ABC-DP rating
# Outline: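 Mortality after 3 days at room temperature is the read-out, scored well by well and converted to a rating. Test molecules came from 4000 ppm stocks in DMSO, further diluted in 90:10 water/acetone, and were exposed to roughly 1-day-old larvae suspended in liver-powder water.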
# [4] = Beet Armyworm, Table ABC / ABC-DP rating, read-out: BAW rating
# [5] = Cabbage Looper, Table ABC / ABC-DP rating, read-out: CL rating
# [6] = Beet Armyworm, rating class, read-out: BAW
# [7] = Cabbage Looper, rating class, read-out: CL
# [8] = Yellow Fever Mosquito, rating class
# [9] = Table ABC: Biological Results, species BAW, read-out: BAW
# [10] = Table ABC: Biological Results, species CL, read-out: CL
# [11] = Table ABC: Biological Results, species YFM
Structure (SMILES),"pest or weed control at 50 µg/cm2 [1, 4] [%]","pest or weed control at 50 µg/cm2 [2, 5] [%]",YFM rating ([3]; Yellow Fever Mosquito),"pest or weed control at 50 µg/cm2 [1, 6] [%]","pest or weed control at 50 µg/cm2 [2, 7] [%]","YFM [3, 8]",also measured
"O=C(NNC(=O)C(F)(F)F)c1cc(NC(=O)[C@H]2[C@H](c3cc(Cl)cc(Cl)c3)C2(Cl)Cl)ccc1Cl (relative stereo) [F2515, trans-2,2-Dichloro-N-(4-chloro-3-(2-(2,2,2-trifluoroacetyl)hydrazine-1-carbonyl)phenyl)-3-(3,5-dichlorophenyl)cyclopropane-1-carboxamide]",50 to 100,50 to 100,A (80–100),–,–,–,–
"CC(=O)Nc1ccc(F)c(NC(=O)c2cc(NC(=O)[C@H]3[C@H](c4ccc(F)c(C(F)(F)F)c4)C3(Cl)Cl)ccc2F)c1F [F1562, N-(3-Acetamido-2,6-difluorophenyl)-5-((1R,3R)-2,2-dichloro-3-(4-fluoro-3-(trifluoromethyl)phenyl)cyclopropane-1-carboxamido)-2-fluorobenzamide]",–,–,–,50 to 100,50 to 100,A (80–100),–
"O=C(Nc1ccc(F)c(NC(=O)C(F)(F)F)c1F)c1cc(NC(=O)[C@H]2[C@H](c3ccc(Cl)c(Cl)c3)C2(Cl)Cl)ccc1Cl [F1064, 2-Chloro-5-((1R,3R)-2,2-dichloro-3-(3,4-dichlorophenyl)cyclopropane-1-carboxamido)-N-(2,4-difluoro-3-(2,2,2-trifluoroacetamido)phenyl)benzamide]",–,–,–,–,–,–,"pest or weed control at 50 µg/cm2 [1, 9]: 50 to 100%; pest or weed control at 50 µg/cm2 [2, 10]: 50 to 100%; YFM [3, 11]: A (80–100)"
"CCC(=O)Nc1c(F)ccc(NC(=O)c2cc(NC(=O)[C@H]3[C@H](c4cc(F)cc(C(F)(F)F)c4)C3(Cl)Cl)ccc2Cl)c1F [F1709, 2-Chloro-5-((1R,3R)-2,2-dichloro-3-(3-fluoro-5-(trifluoromethyl)phenyl)cyclopropane-1-carboxamido)-N-(2,4-difluoro-3-propionamidophenyl)benzamide]",–,–,–,50 to 100,50 to 100,A (80–100),–
"Nc1c(F)ccc(NC(=O)c2cc(NC(=O)[C@H]3[C@H](c4cccc(I)c4)C3(Cl)Cl)ccc2Cl)c1F (relative stereo) [F1141, trans-N-(3-Amino-2,4-difluorophenyl)-2-chloro-5-(2,2-dichloro-3-(3-iodophenyl)cyclopropane-1-carboxamido)benzamide]",–,–,–,–,–,–,"pest or weed control at 50 µg/cm2 [1, 9]: 50 to 100%; pest or weed control at 50 µg/cm2 [2, 10]: 50 to 100%; YFM [3, 11]: A (80–100)"
"CC(=O)Nc1cc(NC(=O)c2cc(NC(=O)[C@H]3[C@H](c4ccc(Cl)c(Cl)c4)C3(Cl)Cl)ccc2F)c(F)cc1F [F1511, N-(5-Acetamido-2,4-difluorophenyl)-5-((1R,3R)-2,2-dichloro-3-(3,4-dichlorophenyl)cyclopropane-1-carboxamido)-2-fluorobenzamide]",–,–,–,50 to 100,50 to 100,A (80–100),–
"CCOC(C)C(=O)Nc1c(F)ccc(N(C)C(=O)c2cc(NC(=O)[C@H]3[C@H](c4ccc(F)c(C(F)(F)F)c4)C3(Cl)Cl)ccc2Cl)c1F (stereo partly drawn) [F1797, 2-Chloro-5-((1R,3R)-2,2-dichloro-3-(4-fluoro-3-(trifluoromethyl)phenyl)cyclopropane-1-carboxamido)-N-(3-(2-ethoxypropanamido)-2,4-difluorophenyl)-N-methylbenzamide]",50 to 100,50 to 100,A (80–100),–,–,–,–
"O=C(Nc1ccc(F)cc1F)c1cc(NC(=O)[C@H]2[C@@H](c3cc(Cl)c(F)c(Cl)c3)C2(Cl)Cl)ccc1Cl (relative stereo) [F1173, cis-2-Chloro-5-(2,2-dichloro-3-(3,5-dichloro-4-fluorophenyl)cyclopropane-1-carboxamido)-N-(2,4-difluorophenyl)benzamide]",–,–,–,–,–,–,"pest or weed control at 50 µg/cm2 [1, 9]: 50 to 100%; pest or weed control at 50 µg/cm2 [2, 10]: 50 to 100%; YFM [3, 11]: A (80–100)"
"O=C(Nc1ccc(F)c(NC(=O)C(F)F)c1F)c1cc(NC(=O)[C@H]2[C@H](c3cccc(Br)c3)C2(Cl)Cl)ccc1Cl (relative stereo) [F1600, trans-5-(3-(3-Bromophenyl)-2,2-dichlorocyclopropane-1-carboxamido)-2-chloro-N-(3-(2,2-difluoroacetamido)-2,4-difluorophenyl)benzamide]",–,–,–,50 to 100,50 to 100,A (80–100),–
"O=C(Nc1ccc(F)c(NC(=O)C2CCCO2)c1F)c1cc(NC(=O)[C@H]2[C@H](c3cc(C(F)(F)F)cc(C(F)(F)F)c3)C2(Cl)Cl)ccc1Cl (relative stereo) [F1805, trans-N-(3-(5-(3-(3,5-bis(Trifluoromethyl)phenyl)-2,2-dichlorocyclopropane-1-carboxamido)-2-chlorobenzamido)-2,6-difluorophenyl)tetrahydrofuran-2-carboxamide]",50 to 100,50 to 100,A (80–100),–,–,–,–
"CCOC(C)C(=O)Nc1c(F)ccc(NC(=O)c2cc(NC(=O)[C@H]3[C@H](c4ccc(Cl)c(C(F)(F)F)c4)C3(Cl)Cl)ccc2Cl)c1F (stereo partly drawn) [F1660, 2-Chloro-5-((1R,3R)-2,2-dichloro-3-(4-chloro-3-(trifluoromethyl)phenyl)cyclopropane-1-carboxamido)-N-(3-(2-ethoxypropanamido)-2,4-difluorophenyl)benzamide]",–,–,–,50 to 100,50 to 100,A (80–100),–
"O=C(Nc1ccc(F)c(NC(=O)C(F)(F)C(F)(F)C(F)(F)F)c1F)c1cc(NC(=O)[C@H]2[C@H](c3cc(C(F)(F)F)cc(C(F)(F)F)c3)C2(Cl)Cl)ccc1Cl (relative stereo) [F1825, trans-5-(3-(3,5-bis(Trifluoromethyl)phenyl)-2,2-dichlorocyclopropane-1-carboxamido)-2-chloro-N-(2,4-difluoro-3-(2,2,3,3,4,4,4-heptafluorobutanamido)phenyl)benzamide]",50 to 100,50 to 100,A (80–100),–,–,–,–
"O=C(CC1CC1)Nc1c(F)ccc(NC(=O)c2cc(NC(=O)[C@H]3[C@H](c4ccc(Cl)c(Cl)c4)C3(Cl)Cl)ccc2Cl)c1F [F1417, 2-Chloro-N-(3-(2-cyclopropylacetamido)-2,4-difluorophenyl)-5-((1R,3R)-2,2-dichloro-3-(3,4-dichlorophenyl)cyclopropane-1-carboxamido)benzamide]",–,–,–,50 to 100,50 to 100,A (80–100),–
"CN(NC(=O)c1cc(NC(=O)[C@H]2[C@H](c3ccc(F)c(Cl)c3)C2(Cl)Cl)ccc1Cl)c1ccccc1 [F2512, (1R,3R)-2,2-Dichloro-N-(4-chloro-3-(2-methyl-2-phenylhydrazine-1-carbonyl)phenyl)-3-(3-chloro-4-fluorophenyl)cyclopropane-1-carboxamide]",50 to 100,50 to 100,A (80–100),–,–,–,–
"O=C(NNc1ccc(Cl)cn1)c1cc(NC(=O)[C@H]2[C@H](c3cc(Cl)cc(Cl)c3)C2(Cl)Cl)ccc1Cl (relative stereo) [F2504, trans-2,2-Dichloro-N-(4-chloro-3-(2-(5-chloropyridin-2-yl)hydrazine-1-carbonyl)phenyl)-3-(3,5-dichlorophenyl)cyclopropane-1-carboxamide]",50 to 100,50 to 100,A (80–100),–,–,–,–
"O=C(Nc1ccc(F)c(NC(=O)C(Br)Br)c1F)c1cc(NC(=O)[C@H]2[C@H](c3ccc(F)c(C(F)(F)F)c3)C2(Cl)Cl)ccc1Cl [F1355, 2-Chloro-N-(3-(2,2-dibromoacetamido)-2,4-difluorophenyl)-5-((1R,3R)-2,2-dichloro-3-(4-fluoro-3-(trifluoromethyl)phenyl)cyclopropane-1-carboxamido)benzamide]",–,–,–,–,–,–,"pest or weed control at 50 µg/cm2 [1, 9]: 50 to 100%; pest or weed control at 50 µg/cm2 [2, 10]: 50 to 100%; YFM [3, 11]: A (80–100)"
"O=C(NNC(=O)c1cc(NC(=O)[C@H]2[C@H](c3cc(Cl)cc(Cl)c3)C2(Cl)Cl)ccc1Cl)c1ccccc1 (relative stereo) [F2519, trans-N-(3-(2-Benzoylhydrazine-1-carbonyl)-4-chlorophenyl)-2,2-dichloro-3-(3,5-dichlorophenyl)cyclopropane-1-carboxamide]",50 to 100,50 to 100,A (80–100),–,–,–,–
"O=C(Nc1ccc(F)c(NC(=O)C2(F)OC(F)(F)C(F)(F)C2(F)F)c1F)c1cc(NC(=O)[C@H]2[C@H](c3ccc(F)c(C(F)(F)F)c3)C2(Cl)Cl)ccc1Cl (stereo partly drawn) [F1782, N-(3-(2-Chloro-5-((1R,3R)-2,2-dichloro-3-(4-fluoro-3-(trifluoromethyl)phenyl)cyclopropane-1-carboxamido)benzamido)-2,6-difluorophenyl)-2,3,3,4,4,5,5-heptafluorotetrahydrofuran-2-carboxamide]",50 to 100,50 to 100,A (80–100),–,–,–,–
"O=C(Nc1c(F)ccc(NC(=O)C(F)(F)F)c1F)c1cc(NC(=O)[C@H]2[C@H](c3cc(Cl)c(Cl)c(Cl)c3)C2(Cl)Cl)ccc1F [F1554, 5-((1R,3R)-2,2-Dichloro-3-(3,4,5-trichlorophenyl)cyclopropane-1-carboxamido)-N-(2,6-difluoro-3-(2,2,2-trifluoroacetamido)phenyl)-2-fluorobenzamide]",–,–,–,50 to 100,50 to 100,A (80–100),–
